Source: patent US8664391B2, “Amide compounds as boosters of antivirals” (Janssen R&D Ireland Ltd, priority 2008, dated 2014)
Read-outs that look alike come from different tables or passages of the source.

Assays:
[1] = tested on: wild-type HIV-1 IIIB strain; test: Antiviral activity in MT4 LTR-EGFP cellular assay; type: cell-based; details: read-out: Antiviral Activity IIIB pEC50 (converted)
Method: (§1) Assay 1 &2: Antiviral Activity/Toxicity
The compounds of the present invention were tested for antiviral activity in a cellular assay, which was performed according to the following procedure.
The human T-cell line MT4 is engineered with Green Fluorescent Protein (GFP) and an HIV-specific promoter, HIV-1 long terminal repeat (LTR). This cell line is designated MT4 LTR-EGFP, and can be used for the in vitro evaluation of anti-HIV activity of investigational compounds. In HIV-1 infected cells, the Tat protein is produced which upregulates the LTR promotor and finally leads to stimulation of the GFP reporter production, allowing measuring ongoing HIV-infection fluorometrically.
(§2) The ratio of CC50 to EC50 is defined as the selectivity index (SI) and is an indication of the selectivity of the anti-HIV activity of the inhibitor. The ultimate monitoring of HIV-1 infection and cytotoxicity is done using a scanning microscope. Image analysis allows very sensitive detection of viral infection. Measurements are done before cell necrosis, which usually takes place about five days after infection, in particular measurements are performed three days after infection.
A pEC50 value corresponds to −log10(EC50). A pCC50 value corresponds to −log10(CC50).

[2] = Cytotoxicity in mock-infected MT4 CMV-EGFP cells; type: cell-based; details: human, pCC50 = -log10(CC50), read-out: Toxicity MT4 pCC50 (converted)
Text: as §1
Analogously, MT4 cells are engineered with GFP and the constitutional cytomegalovirus (CMV) promotor. This cell line is designated MT4 CMV-EGFP, and can be used for the in vitro evaluation of cytotoxicity of investigational compounds. In this cell line, GFP levels are comparably to those of infected MT4 LTR-EGFP cells. Cytotoxic investigational compounds reduce GFP levels of mock-infected MT4 CMV-EGFP cells.
as §2, with “Effective concentration values such as 50% effective concentration (EC50) can be determined and are usually expressed in μM. An EC50 value is defined as the concentration of test compound that reduces the fluorescence of HIV-infected cells by 50%. The 50% cytotoxic concentration (CC50 in μM) is defined as the concentration of test compound that reduces fluorescence of the mock-infected cells by 50%. The ratio” for “The ratio”
Table 2 lists pEC50 values against the wild-type HIV-1 IIIB strain as well as pCC50 values for a selected number of compounds of the invention. A pEC50 value corresponds to −log10(EC50). A pCC50 value corresponds to −log10(CC50).

[3] = in vitro; type: in vitro ADME, human; details: pH 7.4
Text: Assay 3: Metabolic Stability of Test Compounds (HLM15′)
Sub-cellular tissue preparations are made according to Gorrod et al. (Xenobiotica, 5, pp. 453-462 (1975)) by centrifugal separation after mechanical homogenization of tissue. Human liver tissue is rinsed in ice-cold 0.1 M Tris-HCl (pH 7.4) buffer to wash excess blood. Tissue is then blotted dry, weighed and chopped coarsely using surgical scissors. The tissue pieces are homogenized in 3 volumes of ice-cold 0.1 M phosphate buffer (pH 7.4) using either a Potter-S (Braun, Italy) equipped with a Teflon pestle or a Sorvall Omni-Mix homogenizer, for 7×10 sec. In both cases, the vessel is kept in/on ice during the homogenization process. Tissue homogenates are centrifuged at 9000×g for 20 min at 4° C. using a Sorvall centrifuge or Beckman Ultracentrifuge. The resulting supernatant can be stored at −80° C. and is designated ‘S9’. The S9 fraction is centrifuged at 100,000×g for 60 min at 4° C. using a Beckman ultracentrifuge. The resulting supernatant is carefully aspirated, aliquoted and designated ‘cytosol’. The pellet is re-suspended in 0.1 M phosphate buffer (pH 7.4) in a final volume of 1 ml per 0.5 g original tissue weight and designated ‘microsomes’. All sub-cellular fractions are aliquoted, immediately frozen in liquid nitrogen and stored at −80° C. until use.
Heat-inactivated (10 min at 95° C.) ‘S9’ or microsomes were used for blank experiments. Reaction mixtures were incubated at 37° C. for 5 min, after which the reaction was started by the addition of 0.8 mM β-NADP. The reaction was incubated for 0 or 15 min. Next, the reaction was stopped by addition of 2 volumes of DMSO (or acetonitrile). Samples were centrifuged (10 min, 900×g) and analyzed by LC-MS.

[4] = biological target: T1, CYP3A4 (Homo sapiens, UniProt P08684); test: CYP450 inhibition, fluorescent substrate assay, CYP3A4; type: biochemical; details: for inhibition at 10 min, 10 μM: substrate DBF 1 μM, read-out: 3A4-DBF % inh.
T1 construct: host or cells: E. coli
Method: (§3) Assay 4: CYP450 Inhibition […] This fluorescent molecule was measured using a fluorescent plate reader (Victor2 (Wallac) or Fluoroskan (Labsystems)). Compounds inhibiting the enzymatic reaction will result in a decrease of fluorescent signal. CYP P450 enzymes were prepared in house or commercially bought and stored at −80° C. [table] The assay was performed in black 96 well Costar plates. Test compounds were added to a CYP P450 enzyme solution in the presence of an NADPH generating system. After 5 min of preincubation at 37° C., the freshly prepared, phosphate buffered (pH 7.4) substrate solution was added. Known CYP P450 inhibitors were used as positive controls, negative controls were run without CYP P450 enzyme. For final reaction mixture concentrations, see Table 6. […] Then, the reaction was stopped by the addition of 200 μl acetonitrile, and the fluorescent signal was detected. [table] […] Inhibition of TMC114 Metabolisation

[5] = biological target: CYP2C9 (Homo sapiens, UniProt P11712); test: CYP450 inhibition, fluorescent substrate assay, CYP2C9; type: biochemical
Method: as §3

[6] = biological target: T2, CYP2D6 (Homo sapiens, UniProt P10635); test: CYP450 inhibition, fluorescent substrate assay, CYP2D6; type: biochemical; details: substrate AMMC 3 μM, read-out: 2D6-AMMC % inh.
T2 construct: host or cells: E. coli
Method: as §3

[7] = biological target: T3, CYP1A2 (Homo sapiens, UniProt P05177); test: CYP450 inhibition, fluorescent substrate assay, CYP1A2; type: biochemical; details: substrate CEC 5 μM, read-out: 1A2-CEC % inh.
T3 construct: host or cells: E. coli
T3 sequence (P05177 1-516): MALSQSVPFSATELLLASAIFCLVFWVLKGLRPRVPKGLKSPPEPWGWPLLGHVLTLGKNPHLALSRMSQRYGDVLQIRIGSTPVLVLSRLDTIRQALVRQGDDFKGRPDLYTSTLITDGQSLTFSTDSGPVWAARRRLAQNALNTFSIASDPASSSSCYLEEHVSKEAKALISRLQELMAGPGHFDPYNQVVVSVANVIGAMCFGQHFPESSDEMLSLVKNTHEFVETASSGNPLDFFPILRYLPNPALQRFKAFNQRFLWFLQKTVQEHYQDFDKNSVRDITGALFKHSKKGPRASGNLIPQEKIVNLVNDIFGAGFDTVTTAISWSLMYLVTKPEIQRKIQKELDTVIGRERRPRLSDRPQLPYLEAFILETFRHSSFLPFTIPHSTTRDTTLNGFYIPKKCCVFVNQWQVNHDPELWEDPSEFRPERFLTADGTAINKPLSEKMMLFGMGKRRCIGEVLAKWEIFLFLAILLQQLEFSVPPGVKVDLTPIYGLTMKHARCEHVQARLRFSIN
Method: as §3

[8] = biological target: T4, CYP2C19 (Homo sapiens, UniProt P33261); test: CYP450 inhibition, fluorescent substrate assay, CYP2C19; type: biochemical; details: substrate CEC 25 μM, read-out: 2C19-CEC % inh.
T4 construct: host or cells: E. coli
Method: as §3

[9] = Human immunodeficiency virus 1, IIIB, 72 h
[10] = human liver microsomes 1 mg/ml, 5 μM test compound, 15 min, 37° C., read-out: % recovery HLM15
[11] = E. coli expressed CYP3A4, pH 7.4, probe BFC (150 μM), 10 μM test compound, substrate BFC 150 μM, read-out: 3A4-BFC % inh.
[12] = E. coli expressed CYP3A4, pH 7.4, probe BQ (60 μM), 10 μM test compound, substrate BQ 60 μM, read-out: 3A4-BQ % inh.
[13] = E. coli expressed CYP3A4, pH 7.4, probe DBF (1 μM), 10 μM test compound
[14] = pH 7.4, 10 μM test compound, substrate MFC 200 μM, 30 min, read-out: 2C9-MFC % inh.
[15] = E. coli expressed CYP2D6, pH 7.4, probe AMMC (3 μM), 10 μM test compound
[16] = E. coli expressed CYP1A2, pH 7.4, probe CEC (5 μM), 10 μM test compound
[17] = E. coli expressed CYP2C19, pH 7.4, probe CEC (25 μM), 10 μM test compound
[18] = Human immunodeficiency virus 1, 72 h, wild-type HIV-1 IIIB, MT4 LTR-EGFP cells, three days after infection, pEC50 = -log10(EC50)

Chain of CYP2C9 (P11712 whole entry): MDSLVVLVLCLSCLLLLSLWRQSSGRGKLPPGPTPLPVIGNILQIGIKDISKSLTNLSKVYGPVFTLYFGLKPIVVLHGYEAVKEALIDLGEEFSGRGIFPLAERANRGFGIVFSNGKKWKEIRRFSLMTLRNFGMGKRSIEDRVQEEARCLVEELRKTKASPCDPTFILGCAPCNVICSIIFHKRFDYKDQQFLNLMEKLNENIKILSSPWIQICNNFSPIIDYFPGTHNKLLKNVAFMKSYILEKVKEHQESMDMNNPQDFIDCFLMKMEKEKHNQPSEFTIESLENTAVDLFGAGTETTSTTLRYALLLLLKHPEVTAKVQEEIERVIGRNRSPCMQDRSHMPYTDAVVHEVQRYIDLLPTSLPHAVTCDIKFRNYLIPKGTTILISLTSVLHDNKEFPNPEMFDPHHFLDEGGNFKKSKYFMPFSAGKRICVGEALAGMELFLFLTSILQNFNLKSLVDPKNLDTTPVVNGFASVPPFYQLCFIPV
T2 sequence (P10635 whole entry): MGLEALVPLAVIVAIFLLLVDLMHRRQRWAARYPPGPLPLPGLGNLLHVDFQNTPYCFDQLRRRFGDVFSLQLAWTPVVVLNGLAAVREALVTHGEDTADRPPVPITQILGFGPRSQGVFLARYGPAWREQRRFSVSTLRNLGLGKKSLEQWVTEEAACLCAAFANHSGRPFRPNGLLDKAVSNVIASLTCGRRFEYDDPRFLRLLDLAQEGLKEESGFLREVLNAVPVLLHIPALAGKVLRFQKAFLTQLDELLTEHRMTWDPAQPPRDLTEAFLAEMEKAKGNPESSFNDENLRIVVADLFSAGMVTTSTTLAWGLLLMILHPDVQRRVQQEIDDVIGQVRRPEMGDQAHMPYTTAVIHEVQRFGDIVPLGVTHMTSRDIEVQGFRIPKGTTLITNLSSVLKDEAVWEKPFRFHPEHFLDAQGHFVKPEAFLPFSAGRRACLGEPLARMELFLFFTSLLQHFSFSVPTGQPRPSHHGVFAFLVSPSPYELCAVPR
T4 sequence (P33261 whole entry): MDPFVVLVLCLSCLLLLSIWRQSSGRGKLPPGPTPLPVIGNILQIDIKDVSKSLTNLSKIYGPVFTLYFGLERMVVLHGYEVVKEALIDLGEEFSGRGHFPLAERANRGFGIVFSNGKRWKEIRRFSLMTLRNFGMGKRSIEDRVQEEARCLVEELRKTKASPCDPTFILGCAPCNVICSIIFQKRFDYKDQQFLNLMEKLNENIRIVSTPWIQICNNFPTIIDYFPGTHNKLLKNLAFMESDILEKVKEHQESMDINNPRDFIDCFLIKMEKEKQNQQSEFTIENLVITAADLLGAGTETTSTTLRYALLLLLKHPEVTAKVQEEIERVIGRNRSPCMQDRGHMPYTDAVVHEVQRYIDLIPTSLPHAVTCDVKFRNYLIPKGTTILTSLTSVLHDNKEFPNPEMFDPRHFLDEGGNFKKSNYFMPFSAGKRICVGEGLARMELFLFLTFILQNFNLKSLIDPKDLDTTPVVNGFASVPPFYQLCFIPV
T1 sequence (P08684 whole entry): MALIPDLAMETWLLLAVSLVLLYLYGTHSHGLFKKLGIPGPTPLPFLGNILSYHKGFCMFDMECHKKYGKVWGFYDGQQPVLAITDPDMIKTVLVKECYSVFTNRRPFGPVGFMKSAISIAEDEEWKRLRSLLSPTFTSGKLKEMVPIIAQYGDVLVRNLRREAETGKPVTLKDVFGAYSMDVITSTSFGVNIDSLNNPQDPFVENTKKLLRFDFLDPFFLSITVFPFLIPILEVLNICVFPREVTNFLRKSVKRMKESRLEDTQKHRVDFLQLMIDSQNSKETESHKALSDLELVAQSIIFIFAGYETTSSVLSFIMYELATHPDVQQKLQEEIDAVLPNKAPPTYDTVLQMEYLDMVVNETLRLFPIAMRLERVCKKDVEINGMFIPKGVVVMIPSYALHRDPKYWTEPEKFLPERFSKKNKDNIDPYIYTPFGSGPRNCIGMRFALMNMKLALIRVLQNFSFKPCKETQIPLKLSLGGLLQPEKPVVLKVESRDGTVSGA

Row | Compound | EC50 [1, 9] | CC50 at 3 days [2] | recovery at 15 min, 5 μM [3, 10] | inhibition at 30 min, 10 μM [4, 11] | inhibition at 30 min, 10 μM [4, 12] | inhibition at 10 min, 10 μM [4, 13] | inhibition at 30 min, 10 μM [5, 14] | inhibition at 45 min, 10 μM [6, 15] | inhibition at 15 min, 10 μM [7, 16] | inhibition at 30 min, 10 μM [8, 17] | EC50 [1, 18] | recovery at 15 min, 5 μM ([3]; human) | inhibition at 30 min, 10 μM ([5]; pH 7.4) | inhibition at 30 min, 10 μM ([4]; pH 7.4, 10 μM test compound, substrate BFC 150 μM, read-out: 3A4-BFC % inh.) | inhibition at 30 min, 10 μM ([4]; pH 7.4, 10 μM test compound, substrate BQ 60 μM, read-out: 3A4-BQ % inh.) | inhibition at 10 min, 10 μM ([4]; pH 7.4, 10 μM test compound) | inhibition at 45 min, 10 μM ([6]; pH 7.4, 10 μM test compound) | inhibition at 15 min, 10 μM ([7]; pH 7.4, 10 μM test compound) | inhibition at 30 min, 10 μM ([8]; pH 7.4, 10 μM test compound)
1 | CC(C)CN(C[C@@H](O)[C@H](Cc1ccccc1)NC(=O)OCc1cncs1)C(=O)c1cccc(Br)c1 [Compound C17] | 41.7 µM | 36.3 µM | 68% | 57% | 81% | 93% | 98% | 46% | 55% | 87% |  |  |  |  |  |  |  |  | 
2 | CC(C)CN(C[C@@H](O)[C@H](Cc1ccccc1)NC(=O)OCc1cncs1)C(=O)c1ccc(Br)cc1 [Compound C18] | 38.9 µM | 41.7 µM | 57% | 83% | 84% | 94% | 98% | 64% | 63% | 93% |  |  |  |  |  |  |  |  | 
3 | CC(C)CN(C[C@@H](O)[C@H](Cc1ccccc1)NC(=O)OCc1cccnc1)C(=O)c1ccncc1 [Compound C20] |  | > 100 µM |  | 88% | 66% | 85% |  | 13% | 6% | 41% | > 100 µM | 37% | 63% |  |  |  |  |  | 
4 | CC(C)CN(C[C@@H](O)[C@H](Cc1ccccc1)NC(=O)OCc1cncs1)C(=O)c1ccco1 [Compound C21] | > 100 µM | > 100 µM | 62% |  |  |  | 95% |  |  |  |  |  |  | 87% | 81% | 95% | 62% | 43% | 75%
5 | CC(C)(C)CN(C[C@@H](O)[C@H](Cc1ccccc1)NC(=O)OCc1cncs1)C(=O)c1ccncc1 [Compound C22] |  | > 100 µM |  | 93% | 74% | 89% |  | 62% | 0% | 60% | > 100 µM | 77% | 69% |  |  |  |  |  | 
6 | CC(C)CN(C[C@@H](O)[C@H](Cc1ccccc1)NC(=O)OCc1cncs1)C(=O)C1CCC(F)(F)CC1 [Compound C23] |  | 55 µM |  | 94% | 73% | 92% |  | 65% | 22% | 77% | 51.3 µM | 72% | 89% |  |  |  |  |  | 
7 | CC(C)CN(C[C@@H](O)[C@H](Cc1ccccc1)NC(=O)OCc1cncs1)C(=O)CCc1cncs1 [Compound C24] |  | > 100 µM |  | 101% | 82% | 89% |  | 96% | 13% | 86% | 97.7 µM | 56% | 92% |  |  |  |  |  | 
8 | CC(C)CN(C[C@@H](O)[C@H](Cc1ccccc1)NC(=O)OCc1cncs1)C(=O)OCc1cncs1 [Compound C25] |  | 77.6 µM |  | 100% | 79% | 89% |  | 91% | 25% | 97% | 69.2 µM | 63% | 95% |  |  |  |  |  | 
